The values below come from patent US20230234942A1, “COMPOUNDS FOR TREATING HUNTINGTON'S DISEASE” (PTC Therapeutics, Inc., priority 2020, published 2023).

As a reminder, the IC50 is the concentration at which inhibition is half-maximal.

The test concerns Endogenous Huntingtin Protein. The test is described as follows: Endogenous Huntingtin Protein Assay (ELISA-based MSD electrochemiluminescence). The test is classed as cell-based. The settings on record: Table 2; MSD plates coated with MW1 (expanded polyglutamine) or MAB2166 capture antibody; "inactive" = result above the detection limit of the assay. The method, boiled down: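 Endogenous huntingtin measured on MSD plates coated with MW1 (polyglutamine-expanded) or MAB2166 capture antibody; lysates bound overnight at 4 °C. Signal developed with #56565 rabbit monoclonal and goat anti-rabbit SULFO-TAG (0.25 µg/mL, 1 h RT each), electrochemiluminescence read on SI 6000.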
(In general: An ELISA detects its analyte on a solid surface through an enzyme-linked reagent.)
On to `C[C@@H]1CN(c2ncc(-c3ccc(-c4ccc5nc(C(F)(F)F)cn5n4)cc3O)nn2)C[C@H](C)N1` [Cpd 118, 2-{3-[(3R,5S)-3,5-dimethylpiperazin-1-yl]-1,2,4-triazin-6-yl)-5-[2-(trifluoromethyl)imidazo[1,2-b]pyridazin-6-yl]phenol], for which the “IC50 (nM)” value was “inactive”.

The molecule `CC(C)[C@H]1CN(c2ncc(-c3ccc(-c4nnc(C(F)F)s4)cc3O)nn2)CCN1` [Cpd 205, 5-[5-(difluoromethyl)-1,3,4-thiadiazol-2-yl]-2-{3-[(3S)-3-(propan-2-yl)piperazin-1-yl]-1,2,4-triazin-6-yl}phenol] displayed an IC50 of 904 nM. Same read-out and setting: with `CC(C)[C@H]1CN(c2ncc(-c3ncc(-c4cc(F)c5nn(C)cc5c4)cc3O)nn2)CCN1` [Cpd 157, 5-(7-fluoro-2-methyl-2H-indazol-5-yl)-2-{3-[(3S)-3-(propan-2-yl)piperazin-1-yl]-1,2,4-triazin-6-yl}pyridin-3-ol] the figure was 7.8 nM; with `CC(C)[C@H]1CN(c2ncc(-c3ccc(-c4cnc5n4CCC5)cc3O)nn2)CCN1` [Cpd 279, 5-(6,7-dihydro-5H-pyrrolo[1,2-a]imidazol-3-yl)-2-{3-[(3S)-3-(propan-2-yl)piperazin-1-yl]-1,2,4-triazin-6-yl}phenol], 5.2 nM; with `CC(C)[C@H]1CN(c2ncc(-c3ccc(-c4cc(F)c5nn(C)cc5c4)cc3O)nn2)CCN1` [Cpd 81, 5-(7-fluoro-2-methyl-2H-indazol-5-yl)-2-{3-[(3S)-3-(propan-2-yl)piperazin-1-yl]-1,2,4-triazin-6-yl}phenol], 5.4 nM. Turning to `Cc1cn2nc(-c3ccc(-c4cnc(N5C[C@@H](C)N(C)[C@@H](C)C5)nn4)c(O)c3)cc(C#N)c2n1` [Cpd 108, 6-(3-hydroxy-4-{3-[(3R,5S)-3,4,5-trimethylpiperazin-1-yl]-1,2,4-triazin-6-yl]phenyl)-2-methylimidazo[1,2-b]pyridazine-8-carbonitrile], the midpoint of inhibition, the IC50, lay at 19.8 nM.

Molecule `CN1CCn2ncc(-c3ccc(-c4cnc(N5CCN[C@@H](C6CC6)C5)nn4)c(O)c3)c21` [Cpd 275, 2-{3-[(3S)-3-cyclopropylpiperazin-1-yl]-1,2,4-triazin-6-yl}-5-(1-methyl-2,3-dihydro-IH-imidazo[1,2-b]pyrazol-7-yl)phenol] came in with a half-maximal inhibitory concentration (IC50) of 755 nM. Same read-out and setting: to `Cn1cc2cc(-c3ccc(-c4cnc(N5CCN6CCC[C@@H]6C5)nn4)c(O)c3)cc(F)c2n1` [Cpd 105, 5-(7-fluoro-2-methyl-2H-indazol-5-yl)-2-{3-[(8aR)-hexahydropyrrolo[1,2-a]pyrazin-2(1H)-yl]-1,2,4-triazin-6-yl}phenol] belongs 15.3 nM; to `Cc1nnn2cc(-c3ccc(-c4cnc(N5C[C@@H](C)N[C@@H](C)C5)nn4)c(O)c3)ccc12` [Cpd 206, 2-{3-[rac-(3R,5S)-3,5-dimethylpiperazin-1-yl]-1,2,4-triazin-6-yl}-5-(3-methyl[1,2,3]triazolo[1,5-a]pyridin-6-yl)phenol], 33.7 nM. Molecule `CC(C)(C)[C@H]1CN(c2ncc(-c3ccc(-c4ncsn4)cc3O)nn2)CCN1` [Cpd 258, 2-{3-[(3S)-3-tert-butylpiperazin-1-yl]-1,2,4-triazin-6-yl}-5-(1,2,4-thiadiazol-3-yl)phenol] yielded an IC50 of 10.8 nM. Same read-out and setting: to `[2H]C([2H])([2H])n1cc(-c2ccc(-c3cnc(N4CC5CCC(C4)N5C)nn3)c(O)c2)cn1` [Cpd 58, 2-[3-(8-methyl-3,8-diazabicyclo[3.2.1]octan-3-yl)-1,2,4-triazin-6-yl]-5-[l-(^2H3)methyl-1H-pyrazol-4-yl]phenol] belongs 678 nM.

`Oc1cc(-c2cn[nH]c2)ccc1-c1cnc(N2CCN3CCCCC3C2)nn1` (stereo not drawn) [Cpd 203, 2-[3-(octahydro-2H-pyrido[1,2-a]pyrazin-2-yl)-1,2,4-triazin-6-yl]-5-(1H-pyrazol-4-yl)phenol]: half-maximal inhibition (IC50) was put at 42.5 nM. The molecule `Oc1cc(-c2c[nH]nc2F)ccc1-c1cnc(N2CCN[C@H](C3CC3)C2)nn1` [Cpd 7, 2-{3-[(3R)-3-cyclopropylpiperazin-1-yl]-1,2,4-triazin-6-yl}-5-(3-fluoro-1H-pyrazol-4-yl)phenol] had an IC50 of 6.9 nM. Still for that read-out and setting: with `Oc1cc(-c2cn[nH]c2)ccc1-c1cnc(N2CCNC(C3CC3(F)F)C2)nn1` (stereo not drawn) [Cpd 36, 2-{3-[3-(2,2-dilluorocyclopropyl)piperazin-1-yl]-1,2,4-triazin-6-yl}-5-(1H-pyrazol-4-yl)phenol] the figure was 47.7 nM; with `C[C@@H]1CN(c2ncc(-c3ccc(-c4c[nH]nc4F)cc3O)nn2)C[C@H](C(C)(C)C)N1` [Cpd 248, 2-{3-[(3S,5R)-3-tert-butyl-5-methylpiperazin-1-yl]-1,2,4-triazin-6-yl]-5-(3-fluoro-1H-pyrazol-4-yl)phenol], 74.9 nM; with `CC(C)[C@H]1CN(c2ncc(-c3ccc(-c4nnc(C5CC5)o4)cc3O)nn2)CCN1` [Cpd 199, 5-(5-cyclopropyl-1,3,4-oxadiazol-2-yl)-2-{3-[(3S)-3-(propan-2-yl)piperazin-1-yl]-1,2,4-triazin-6-yl}phenol], 526 nM.

Regarding `CC(C)[C@H]1CN(c2ncc(-c3ccc(-c4cnccn4)cc3O)nn2)CCN1` [Cpd 144, 2-{3-[(3S)-3-(propan-2-yl)piperazin-1-yl]-1,2,4-triazin-6-yl}-5-(pyrazin-2-yl)phenol], the IC50 came out at 466 nM. The same measure, in the same setting: to `C=C[C@H]1CN(c2ncc(-c3ccc(-c4cn[nH]c4)cc3O)nn2)C[C@@H](C)N1` [Cpd 249, 2-{3-[(3S,5R)-3-ethenyl-5-methylpiperazin-1-yl]-1,2,4-triazin-6-yl]-5-(1H-pyrazol-4-yl)phenol] belongs 319 nM; to `Cc1cn2cc(-c3ccc(-c4cnc(N5CCN[C@@H](C(C)C)C5)nn4)c(O)c3)cc(C)c2n1` [Cpd 131, 5-(2,8-dimethylimidazo[1,2-a]pyridin-6-yl)-2-{3-[(3S)-3-(propan-2-yl)piperazin-1-yl]-1,2,4-triazin-6-yl}phenol], 7.6 nM. In turn, `Oc1cc(-c2ccncc2F)ccc1-c1cnc(N2CCN[C@@H](C3CC3)C2)nn1` [Cpd 178, 2-{3-[(3S)-3-cyclopropylpiperazin-1-yl]-1,2,4-triazin-6-yl}-5-(3-fluoropyridin-4-yl)phenol] yielded an IC50 of 300 nM. In turn, `COc1cc(-c2ccc(-c3cnc(N4C[C@@H](C)N[C@@H](C(C)C)C4)nn3)c(O)c2)ccn1` [Cpd 257, 5-(2-methoxypyridin-4-yl)-2-{3-[(3R,5S)-3-methyl-5-(propan-2-yl)piperazin-1-yl]-1,2,4-triazin-6-yl}phenol] registered an IC50 of 19.8 nM. On the same count and under the same terms, with `Oc1cc(-n2nccn2)ccc1-c1cnc(N2CCN3CCC[C@H]3C2)nn1` [Cpd 153, 2-{3-[(8aS)-hexahydropyrrolo[1,2-a]pyrazin-2(1H)-yl]-1,2,4-triazin-6-yl}-5-(2H-1,2,3-triazol-2-yl)phenol] the figure was 438 nM; with `Oc1cc(-c2cn[nH]c2)ccc1-c1cnc(N2CCNC(CC(F)(F)F)C2)nn1` (stereo not drawn) [Cpd 146, 5-(1H-pyrazol-4-yl)-2-{3-[3-(2,2,2-trifluoroethyl)piperazin-1-yl]-1,2,4-triazin-6-yl}phenol], 539 nM; with `[2H]C([2H])([2H])Oc1cc(-c2ccc(-c3cnc(N4CCN[C@@H](CC)C4)nn3)c(O)c2)ncn1` [Cpd 133, 2-{3-[(3S)-3-ethylpiperazin-1-yl]-1,2,4-triazin-6-yl}-5-{6-[(^2H3)methyloxy]pyrimidin-4-yl}phenol], 13 nM.
